Values joined by “and” are separate entries in the source; they are usually repeats but may differ in a detail not shown here. Equal values may be shown once. “Also recorded” adds a separate entry of the source. Read-outs that look alike come from different tables or passages of the source.
How the values were obtained:
[1] = test system: CXCL10; experiment: CXCL10 release from IFN-γ stimulated human PBMCs (ELISA); assay type: cell-based; settings: for IC50: Homo sapiens, PBMC
Procedure: To analyze the selectivity of Compound A for CXCL10, human PBMCs were similarly thawed, and compounds were similarly prepared (final compound concentration ranged from 30,000 nM to 0.005 nM, with a final DMSO concentration per well of 0.3%). PBMCs were seeded into 96-well plates at a concentration of 2×10^5 cells/well (volume of 190 μL) and treated with various concentrations of Compound A for 1 hour. The PBMCs were then stimulated with IFN-γ (15 ng/ml final concentration in a volume of 10 μL), and supernatants were collected 24 hours after the exposure to IFN-γ. Levels of CXCL10 in the supernatant were then analyzed by ELISA (Invitrogen).

[2] = test system: lupus; experiment: SLE (lupus) model: blood urea nitrogen (BUN) in serum; assay type: in vivo, MRL/MpJ-Faslpr mice; settings: Week 19
Procedure: Female MRL/MpJ-Faslpr mice (The Jackson Laboratory) were used to assess the efficacy of Compound A in treating lupus. Starting when animals were 10 weeks of age, protein concentration in urine was measured using urine dipsticks.
At the start of the study, each group in the study had two animals that were 9 weeks old, and all others were 10 weeks old. Dosing of all animals with the test compounds began when the older animals were 11 weeks old. Starting on Day 1, in Groups 1-4, vehicle or Compound A was administered per os (PO) […] (QD) as described above in Table 33. […] Dosing was at a consistent time each dosing day throughout the study.
Compound A may be formulated as illustrated in Experimental Method A (see Table 2E.). […] A stock solution of Compound A in DMSO (stock solution concentration of Compound A of 40 mg/mL) was prepared and aliquots for weekly preparations were frozen at −20° C. On each preparation day, a stock solution aliquot was thawed and diluted with other vehicle components to the desired concentration. Formulated Compound A and vehicle were at room temperature for dosing.
The study began when the older animals were 11 weeks old, and concluded when the older animals were 19 weeks old. Body weight was recorded once a week, with the exception of two weight measurements taken the first week of the study (when the older animals were 11 weeks old). Proteinuria was measured in the urine of animals with urine dipsticks once a week, starting when the older animals were 10 weeks old. […] Blood samples were taken retro-orbitally at the start of the study to establish a baseline (15 animals, 3 per group), and when the older animals were 16 weeks (all animals) and when animals were 19 weeks (all animals) at the conclusion of the study. Blood urea nitrogen (BUN) was measured in all animals at study termination in blood samples. After blood collection, animals were euthanized, perfused with PBS, and the left kidneys were collected and weighed and fixed in 10% buffered formalin. Left kidneys were then processed to a formalin-fixed, paraffin-embedded (FFPE) block, and histology was analyzed in Periodic Acid-Schiff-stained sections (1 section per slide), using the criteria described in Alperovich et al., Lupus, 16:18-24 (2007). Right kidneys were weighed and snap-frozen at −80° C. Spleens were also collected and weighed. SLE in animals treated with a BET inhibitor and vehicle.
BUN provides important information about how well kidneys are working. A BUN test measures the amount of urea nitrogen in the blood and indicates how much urea has been processed by the kidneys and is indicative of renal competency. Urea is a waste product that is excreted in urine.

[3] = test system: Col1a1, TGB-b1, MCP-1, IL-1b, IL-6, IL-17, TNF-α, Timp1; experiment: UUO study: tissue RNA levels of biomarkers; assay type: in vivo, rats
Excerpt: Tables 29A-29B and FIGS. 28A-28B show tissue RNA levels of various biomarkers (Col1a1, TGB-b1, MCP-1, IL-1b, IL-6, IL-17, TNF-α, and Timp1) in sham rats (black bar in FIG. 28A; square shape in FIG. 28B), UUO rats treated with vehicle (grey bar in FIG. 28A; circle shape in FIG. 28B), and UUO rats treated with Compound A (white bar in FIG. 28A; triangle shape in FIG. 28B). […] FIG. 28C further illustrates gene expression levels of Col1a1, TGB-b1, IL-1b, IL-17, MCP-1, and IL-6 relative to the vehicle control. […] To place this reduction in context, IL-6 is said to be a significant contributor to a continued inflammatory response in certain nephritis conditions.

[4] = UUO rats + Compound A, N=8, relative to UUO + Vehicle = 1.00
[5] = UUO rats, tissue, Compound A 10mg/kg QD, individual animals, 10 mg/kg

Cn1cc(-c2ccccc2)c(-c2cn(C)c(=O)c3[nH]c(-c4cnn(C(F)(F)F)c4)cc23)cc1=O [Compound A, 6-methyl-4-(1-methyl-2-oxo-5-phenyl-1,2-dihydropyridin-4-yl)-2-(1-(trifluoromethyl)-1H-pyrazol-4-yl)-1,6-dihydro-7H-pyrrolo[2,3-c]pyridin-7-one]
Percent Inhibition Relative to Control (CXCL10) ([1]; Compound Conc. 10 μM, Donors 1-6 two values each, Donors 7-10 three values each): 101.41% | IC50 ([1]; Average preliminary biomarker assay, read-out: CXCL10 IC50 Mean): 1 µM | IC50 ([1]; Preliminary biomarker assay, Test Subject 1, read-out: CXCL 10 IC50): 1 µM | IC50 ([1]; ELISA, read-out: Selectivity (IC50) CXCL10): 3.64 µM | inhibition of CXCL10 ([1]; human PBMCs, IFN-γ, 24 hours): minimal inhibition | BUN serum concentration ([2]; Compound A 1 mg/kg PO QD): 18.0 mg/dL | BUN serum concentration ([2]; Compound A 3 mg/kg PO QD): 16.8 mg/dL | BUN serum concentration ([2]; Compound A 10 mg/kg PO QD): 11.0 mg/dL | Blood urea nitrogen (BUN) concentration in serum ([2]; highest dose (10 mg/mL)): 11 mg/dL | Col1a1 RNA level, Mean ± SEM [3, 4]: 0.39 ± 0.04 | IL-1b RNA level, Mean ± SEM [3, 4]: 0.31 ± 0.03 | IL-6 RNA level, Mean ± SEM [3, 4]: 0.11 ± 0.02 | IL-17 RNA level, Mean ± SEM [3, 4]: 0.35 ± 0.07 | MCP-1 RNA level, Mean ± SEM [3, 4]: 0.33 ± 0.05 | TGF-b1 RNA level, Mean ± SEM [3, 4]: 0.52 ± 0.05 | TNF-a RNA level, Mean ± SEM [3, 4]: 1.00 ± 0.11 | Timp1 RNA level, Mean ± SEM [3, 4]: 0.54 ± 0.09 | Col1a1 RNA level, Normalized Fold Change [3, 5]: 0.51 and 0.31 and 0.19 and 0.50 (2×) and 0.40 and 0.34 and 0.41 | IL-1b RNA level, Normalized Fold Change [3, 5]: 0.37 and 0.28 and 0.24 (3×) and 0.45 and 0.23 and 0.40 | IL-6 RNA level, Normalized Fold Change [3, 5]: 0.11 (2×) and 0.09 and 0.04 and 0.14 and 0.18 and 0.13 and 0.05 | IL-17 RNA level, Normalized Fold Change [3, 5]: 0.37 and 0.14 and 0.26 and 0.51 and 0.12 and 0.45 and 0.72 and 0.20 | MCP-1 RNA level, Normalized Fold Change [3, 5]: 0.48 and 0.24 and 0.18 and 0.34 and 0.44 and 0.25 and 0.50 and 0.20 | TGF-b1 RNA level, Normalized Fold Change [3, 5]: 0.71 and 0.42 and 0.28 and 0.58 and 0.64 (2×) and 0.40 and 0.50 | TNF-a RNA level, Normalized Fold Change [3, 5]: 1.50 and 1.16 and 1.00 and 0.79 and 1.05 and 0.62 and 1.20 and 0.64 | Timp1 RNA level, Normalized Fold Change [3, 5]: 0.83 and 0.41 and 0.36 and 0.72 (2×) and 0.66 and 0.09 and 0.52 | Tissue RNA level of TNF-α ([3]; UUO rats, 10 mg/kg): no observable effect | Tissue RNA levels of Col1a1, TGB-b1, MCP-1, IL-1b, IL-6, IL-17, Timp1 ([3]; UUO rats, 10 mg/kg PO QD, vs vehicle, 10 mg/kg): reduced levels of Colla1, TGB-b1, MCP-1, IL-1b, IL-6, IL-17, and Timp1; also recorded: markedly lower
